# Patent US7307101B2, “Use of 20-HETE synthesizing enzyme inhibitors as therapy for cerebral vascular disease” (MCW Research Foundation, Inc., priority 2000, dated 2007)
# Values joined by “and” are separate entries in the source; they are usually repeats but may differ in a detail not shown here. Identical values can stand only once.
# Experiments:
# [1] = test system: 20-HETE formation; conditions: read-out: IC50 for inhibition of 20-HETE formation; cited from earlier work
# [2] = test system: cerebral blood flow; conditions: intracerebroventricular injection; cited from earlier work
# [3] = given systemically; cited from earlier work
# [4] = biological target: CYP2D6 (Homo sapiens, UniProt P10635); experiment: CYP2D6 activity in human liver microsomes
# Sequence of CYP2D6 (P10635 whole entry): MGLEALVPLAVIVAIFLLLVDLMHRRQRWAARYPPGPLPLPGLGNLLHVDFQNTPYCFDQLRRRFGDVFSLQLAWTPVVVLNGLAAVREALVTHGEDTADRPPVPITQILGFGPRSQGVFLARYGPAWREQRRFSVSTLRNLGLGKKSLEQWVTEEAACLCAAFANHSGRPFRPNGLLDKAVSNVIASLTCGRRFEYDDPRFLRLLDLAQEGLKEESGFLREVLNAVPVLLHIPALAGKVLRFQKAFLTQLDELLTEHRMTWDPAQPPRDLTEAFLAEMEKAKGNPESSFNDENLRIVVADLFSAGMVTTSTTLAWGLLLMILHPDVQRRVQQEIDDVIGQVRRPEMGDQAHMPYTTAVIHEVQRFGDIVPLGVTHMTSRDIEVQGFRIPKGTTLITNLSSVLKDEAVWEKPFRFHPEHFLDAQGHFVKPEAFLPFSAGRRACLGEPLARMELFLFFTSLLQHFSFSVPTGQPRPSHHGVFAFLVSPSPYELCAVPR
# Text: (§1) Microsomes prepared from the livers of 15 humans was purchased from Nippon Nosanko.
# [5] = test system: cerebral arteries; conditions: read-out: EC50, constriction of cerebral arteries; cited from earlier work
# [6] = test system: 20-HETE synthesizing enzyme; experiment: 20-HETE formation in rat renal microsomes ([3H]-AA, Example 3); format: biochemical
# Experimental: All procedure was carried out at 4° C. Renal cortex was pooled from twenty male SHR rats (6 weeks of age). They were homogenized extensively in lysis buffer (20 mM HEPES, pH 7.4, 1 mM EDTA, 100 μM p-(amidinophenyl)metanesulfonyl fluoride and 250 mM sucrose), and centrifuged at 16,000×g for 10 min. Supernatant was further centrifuged at 16,000×g for 30 min. Soluble fraction was collected and centrifuged at 200,000×g for 30 min. The resulting pellet was suspended in 50 mM MOPS buffer.
# The reaction was terminated by adding formic acid and acetonitrile to a final concentration of 1% and 50%, respectively.
# [7] = biological target: T1, CYP2C19 (Homo sapiens, UniProt P33261); experiment: CYP2C19 activity in human liver microsomes; format: in vitro ADME
# T1 construct: The enzyme/substrate contained buffer, human liver microsomes and the following substrates; tissue Nippon Nosanko; host or cells: pooled human liver microsomes (15 donors)
# T1 sequence (P33261 whole entry): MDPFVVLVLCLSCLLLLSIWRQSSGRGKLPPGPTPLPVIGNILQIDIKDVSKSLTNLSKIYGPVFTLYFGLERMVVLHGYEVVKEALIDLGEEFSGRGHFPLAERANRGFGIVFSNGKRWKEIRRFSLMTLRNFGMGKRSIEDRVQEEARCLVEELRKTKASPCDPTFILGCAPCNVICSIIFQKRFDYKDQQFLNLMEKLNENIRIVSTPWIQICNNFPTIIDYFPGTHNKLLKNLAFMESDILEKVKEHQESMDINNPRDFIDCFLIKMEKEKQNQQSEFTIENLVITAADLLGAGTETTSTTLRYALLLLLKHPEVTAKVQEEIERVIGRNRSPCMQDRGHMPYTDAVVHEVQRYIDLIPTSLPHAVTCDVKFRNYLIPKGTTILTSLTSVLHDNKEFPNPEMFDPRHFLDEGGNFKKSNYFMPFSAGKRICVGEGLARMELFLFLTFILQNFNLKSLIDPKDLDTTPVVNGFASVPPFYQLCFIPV
# Text: as §1
# [8] = test system: 20-HETE in CSF; experiment: 20-HETE concentration in CSF after SAH; format: in vivo, rat; conditions: rats, 2 hr after SAH, drug given prior to SAH
# Experimental: Measurement of 20-HETE in CSF. At the end of each experiment, CSF was collected from the Cisterna Magna using a 1 ml syringe and a 30 gauge needle. […] 20-HETE concentration in CSF was measured using a new fluorescent HPLC assay that was recently described. […] Briefly, 50 ng of an internal standard 20-hydroxyeicosa-6(Z), 15(Z)-dienoic acid (WIT-002) was added to the CSF samples (50 μl). The samples were extracted with 1 mL of ethyl acetate, the extract was dried under argon and the lipid fraction was purified on a Sep-Pak Vac™ column (cat. no. WAT054955, Waters Corporation, Milford, Mass.). […] N,N-diisopropylethylamine (10 μl) was added to catalyze the reaction. The sample was reacted for 30 min at room temperature. […] The amount of 20-HETE in a sample was determined by comparing the area of the 20-HETE peak to that of the internal standard.
# [9] = test system: rats with SAH; experiment: Effect on rCBF after SAH, drug given before SAH; format: in vivo, rat
# Experimental: Animals. Experiments were performed on male Sprague-Dawley rats (9-12 weeks old), purchased from Harlan Sprague-Dawley, Inc. (Indianapolis, Ind.). The rats were housed in an Animal Care Facility at the Medical College of Wisconsin, which is approved by the American Association for the Accreditation of Laboratory Animal Care. All protocols involving animals received approval by the Animal Care Committee of the Medical College of Wisconsin.
# (§2) Surgical preparation. Rats were anesthetized with ketamine (Ketaject® 20 mg/kg i.m.) and thiobutabarbital sodium (Inactin® 50 mg/kg i.p.). A cannula was placed in the trachea and the rats were artificially ventilated using a small animal ventilator (SAR-830, CWE, Inc., Ardmore, Pa.) with a mixture of 30% O2 in N2. The femoral vein was cannulated for the infusion of drug and the rats received an i.v. infusion of 0.9% NaCl solution at a rate of […] to replace fluid losses. The femoral artery was cannulated for measurement of mean arterial pressure (MAP) and arterial blood gases. Endtidal partial pressure of carbon dioxide (pCO2) was controlled at 38 mmHg by adjusting the minute ventilation according to the reading of an CO2 analyzer (Capstar-100 IITC, Inc., Woodland Hills, Calif.). Blood samples were collected at the beginning and end of the experiment and analyzed using a blood gas analyzer (ABL 300, Radiometer, Copenhagen, Denmark) to validate the endtidal pCO2 readings. Anesthesia was maintained by administering additional amounts of thiobutabarbital (8 mg/kg i.v.) as needed. Rectal body temperature was maintained at 37±1° C.
# Induction of SAH and measurement of cerebral blood flow. SAH was induced by injection of 0.3 ml autologous arterial blood into the Cisterna Magna using a modification of a posterior cranio-cervical approach of a model of SAH. Delgado T J et al., Stroke 16: 595-602 (1985); Solomon R A et al., Stroke 16: 58-64 (1985). The head of the rat was placed in a stereotactic head holder and the atlanto-occipital membrane was exposed by bluntly separating the overlying neck muscles in the midline. The occipital bone and the atlas were visualized. A 30 gauge needle attached to PE-10 was inserted using a stereomicroscope into the Cistema Magna by penetrating the atlanto-occipital membrane. Then, 0.3 ml of freshly drawn unheparinized arterial blood was injected into the Cistema Magna at a rate of 35 μl/min using a syringe pump. This created a massive SAH that was confirmed in all rats at autopsy. Blood was found overlying the cerebello-medullary junction posteriorly and around the basal artery and the vessels of the Circle of Willis.
# Cerebral blood flow (CBF) was continuously measured using laser Doppler flowmetry through a thinned cranial window. […] A PF 103 laser Doppler flow (LDF) probe was positioned over the cranial window and CBF was monitored using a PF-3 laser Doppler flowmeter (Perimed, Stockholm, Sweden).
# Other animals received 17-ODYA (1.5 nmol) or vehicle in a volume of 50 μl that was injected directly into the Cistema Magna using a micromanipulator and a 30 gauge needle. The CBF recorded over the last 5 minutes of the control period immediately before initiation of SAH served as the control value. […] CBF was recorded for 2 min intervals at 10, 20, 30, 60, 90 and 120 minutes after completion of the injection of the blood. The CBF data are expressed as percentage change from control.
# [10] = biological target: human 20-HETE synthesizing enzyme; experiment: Formation of 20-HETE by human renal microsomes; format: biochemical; conditions: read-out: IC50, formation of 20-HETE by human renal microsomes
# Experimental: All reactions were terminated by acidification with 1% formic acid. Equal volume of acetonitrile was added and finally 50% acetonitrile mixtures were subjected to HPLC analysis.
# [11] = biological target: CYP2C9 (Homo sapiens, UniProt P11712); experiment: in vitro
# Sequence of CYP2C9 (P11712 whole entry): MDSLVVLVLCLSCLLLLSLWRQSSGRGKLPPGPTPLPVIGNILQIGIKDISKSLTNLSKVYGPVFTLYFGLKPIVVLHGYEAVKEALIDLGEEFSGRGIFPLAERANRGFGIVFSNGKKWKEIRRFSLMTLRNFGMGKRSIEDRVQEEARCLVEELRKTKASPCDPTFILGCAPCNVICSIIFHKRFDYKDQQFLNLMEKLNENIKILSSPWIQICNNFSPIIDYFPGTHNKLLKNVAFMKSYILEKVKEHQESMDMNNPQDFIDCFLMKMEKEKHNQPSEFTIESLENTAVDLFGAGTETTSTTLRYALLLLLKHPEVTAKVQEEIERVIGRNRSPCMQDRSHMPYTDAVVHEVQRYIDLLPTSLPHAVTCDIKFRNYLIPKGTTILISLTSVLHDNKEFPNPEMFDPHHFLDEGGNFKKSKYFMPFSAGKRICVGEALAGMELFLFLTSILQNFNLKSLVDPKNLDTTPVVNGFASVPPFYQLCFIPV
# Text: as §1
# [12] = biological target: CYP3A4 (Homo sapiens, UniProt P08684); experiment: in vitro; conditions: microsomes
# Sequence of CYP3A4 (P08684 whole entry): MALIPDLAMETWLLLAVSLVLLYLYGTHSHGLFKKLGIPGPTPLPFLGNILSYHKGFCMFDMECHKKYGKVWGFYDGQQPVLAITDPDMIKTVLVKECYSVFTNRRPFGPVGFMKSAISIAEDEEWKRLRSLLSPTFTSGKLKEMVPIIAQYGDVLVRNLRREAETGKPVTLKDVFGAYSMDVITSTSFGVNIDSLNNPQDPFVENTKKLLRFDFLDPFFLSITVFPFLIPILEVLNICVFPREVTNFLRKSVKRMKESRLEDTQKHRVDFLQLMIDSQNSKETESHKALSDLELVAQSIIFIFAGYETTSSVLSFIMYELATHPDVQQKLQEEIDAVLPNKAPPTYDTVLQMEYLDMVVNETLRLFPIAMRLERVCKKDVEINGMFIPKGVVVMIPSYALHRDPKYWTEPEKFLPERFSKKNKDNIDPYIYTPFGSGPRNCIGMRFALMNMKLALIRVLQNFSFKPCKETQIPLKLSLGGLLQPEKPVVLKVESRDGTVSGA
# Text: as §1
# [13] = Physiological parameters (MAP, endtidal pCO2) during the SAH experiment; format: in vivo, rat; conditions: rats, any time
# Experimental: as §2
# [14] = positive control, concentration not given
# [15] = only at very high concentrations
# [16] = human, microsomes, % Inhibition (duplicate) CYP2D6
structure (smiles),measurement,setting,value
CS(=O)(=O)NC(=O)CCCCCCCCCC=C(Br)Br [DDMS],IC50,[1],3000 nM
same,effect on baseline cerebral blood flow,[2],no effect
same,crossing of the blood brain barrier,[3],does not cross the blood-brain barrier
C=C[C@H]1C[N@@]2CC[C@H]1C[C@@H]2[C@@H](O)c1ccnc2ccc(OC)cc12 [Quinidine],% Inhibition (duplicate) CYP2D6,[4]; [14],91%
"O=C(O)CCCC=CCC=CCC=CCC=CCCCCCO [20-HETE, 20-hydroxyeicosetetraenoic acid]",EC50,[5],< 10 nM
Clc1ccc(COC(Cn2ccnc2)c2ccc(Cl)cc2Cl)c(Cl)c1 (stereo not drawn) [miconazole],concentrations at which the formation of 20-HETE was inhibited,[6]; [15],10 to 20 µg/mL
same,concentrations at which the formation of 20-HETE was inhibited (molar),[6]; [15],21 to 42 µM
"C#CCCCCCCCCCCCCCCCC(=O)O [17-ODYA, 17-Octadecynoic acid]",inhibition at 10 µM,"[7]; human, human liver microsomes, probe 14C-(S)-mephenyloin (4′-hydroxylation), inhibitor 10 μM, read-out: % Inhibition (duplicate) CYP2C19",10%
same,concentration of 20-HETE in the CSF versus vehicle,[8],significantly lower concentration
same,fall in cerebral blood flow following SAH,[9]; 1.5 nmol into the Cisterna Magna of rats,completely blocked
same,reduction of the initial fall in rCBF at 10 min,"[9]; rats pretreated before SAH, HET0016 10 mg/kg i.v. 30 min prior, 17-ODYA 1.5 nmol intrathecally",about 40%
same,time after induction of SAH within which rCBF recovered fully to values not different from control,"[9]; rats pretreated before SAH, HET0016 10 mg/kg i.v., 17-ODYA 1.5 nmol intrathecally",≤ 90 min
same,IC50,[10],1800 ± 800 nM
same,inhibition at 10 µM,[4]; [16],-3%
same,% Inhibition (duplicate) CYP2C9,"[11]; human, microsomes, 10 µM",23%
same,inhibition at 10 µM,"[11]; human, microsomes, % Inhibition (duplicate) CYP2C9",20 to 30%
same,% Inhibition (duplicate) CYP3A4,[12]; 10 µM,29%
same,inhibition at 10 µM,[12]; % Inhibition (duplicate) CYP3A4,20 to 30%
same,IC50,[1],1000 nM
same,MAP (blood pressure) versus vehicle,[13],no difference
same,endtidal pCO2 versus vehicle,[13],no significant differences
same,crossing of the blood brain barrier,[3],does not cross the blood brain barrier
"Nn1nnc2ccccc21 [1-ABT, 1-aminobenzotriazole]",% Inhibition (duplicate) CYP2C19,"[7]; inhibitor 100 μM, 100 µM",40-80% and 75%
same,"IC50, formation of both EETs and 20-HETE","[6]; SHR rat renal microsomes, nonselective inhibitor",approximately 20 μg/ml
same,IC50,"[6]; read-out: IC50, formation of both EETs and 20-HETE (molar), SHR rat renal microsomes, nonselective inhibitor",~150000 nM
same,IC50,[10],38500 ± 14900 nM
same,% Inhibition (duplicate) CYP2D6,"[4]; human, microsomes, 100 µM",42%
same,inhibition at 100 µM,[4]; [16],40 to 80%
same,% Inhibition (duplicate) CYP3A4,[12]; 100 µM,81%
Nc1ccc(S(=O)(=O)Nc2ccnn2-c2ccccc2)cc1 [sulfaphenazol],% Inhibition (duplicate) CYP2C9,[11]; [14],91%
